# Active and inactive are the calls of the source. The calls are words filed in the database; no cut-off is given here.
# Key:
# HeLa [1] = test: Induction of apoptosis in human HeLa cells assessed as early apoptotic cells by measuring bright green patch incubated at 0.098 uM for 72 hrs by acridine orange-ethidium bromide dual staining based fluorescence microscopic analysis; assay type: functional, cell-based
# Caco-2 [2] = test: Anticancer activity against human Caco-2 cells assessed as smaller cells incubated at 0.098uM for 72 hrs by phase contrast inverted microscopic analysis; assay type: functional, cell-based
# HepG2 [3] = test: Induction of apoptosis in human HepG2 cells assessed as total apoptotic cells incubated at 0.098 uM for 72 hrs by annexin V-FITC based propidium iodide dual staining assay (reference value: 0.99 +/- 0.02%); assay type: functional
# HepG2 [4] = test: Anticancer activity against human HepG2 cells assessed as cell shrinkage incubated at 0.098uM for 72 hrs by phase contrast inverted microscopic analysis; assay type: functional, cell-based
# HepG2 [5] = test: Induction of apoptosis in human HepG2 cells assessed as late apoptotic cells by measuring orange to red patch incubated at 0.098 uM for 72 hrs by acridine orange-ethidium bromide dual staining based fluorescence microscopic analysis; assay type: functional, cell-based
# Caco-2 [6] = test: Anticancer activity against human Caco-2 cells assessed as losing contact with neighbouring cells incubated at 0.098uM for 72 hrs by phase contrast inverted microscopic analysis; assay type: functional, cell-based
# HepG2 [7] = test: Induction of apoptosis in human HepG2 cells assessed as necrotic cells incubated at 0.098 uM for 72 hrs by annexin V-FITC based propidium iodide dual staining assay (reference value: 0.33%); assay type: functional
# Caco-2 [8] = test: Anticancer activity against human Caco-2 cells assessed as cell shrinkage incubated at 0.097uM for 72 hrs by phase contrast inverted microscopic analysis; assay type: functional, cell-based
# MCF7 [9] = test: Induction of apoptosis in human MCF7 cells assessed as early apoptotic cells incubated at 0.097 uM for 72 hrs by annexin V-FITC based propidium iodide dual staining assay (reference value: 0.06%); assay type: functional
# MCF7 [10] = test: Induction of apoptosis in human MCF7 cells assessed as increase in Bax expression level relative to control; assay type: functional
# MCF7 [11] = test: Induction of apoptosis in human MCF7 cells assessed as late apoptotic cells incubated at 0.097 uM for 72 hrs by annexin V-FITC based propidium iodide dual staining assay (reference value: 0.01%); assay type: functional
# HepG2 [12] = test: Induction of apoptosis in human HepG2 cells assessed as early apoptotic cells incubated at 0.097 uM for 72 hrs by annexin V-FITC based propidium iodide dual staining assay (reference value: 1.74%); assay type: functional
# HepG2 [13] = test: Anticancer activity against human HepG2 cells assessed as cell shrinkage incubated at 0.097uM for 72 hrs by phase contrast inverted microscopic analysis; assay type: functional, cell-based
# HeLa [14] = test: Induction of apoptosis in human HeLa cells assessed as early apoptotic cells by measuring bright green patch incubated at 0.097 uM for 72 hrs by acridine orange-ethidium bromide dual staining based fluorescence microscopic analysis; assay type: functional, cell-based
# MCF7 [15] = test: Induction of apoptosis in human MCF7 cells assessed as total apoptotic cells incubated at 0.11 uM for 72 hrs by annexin V-FITC based propidium iodide dual staining assay (reference value: 0.04 %); assay type: functional
# MDA-MB-231 = test: Anticancer activity against human MDA-MB-231 cells incubated for 24 hrs by MTT assay; assay type: functional, cell-based; conditions: MDA-MB-231, 24 h
# HepG2 [16] = test: Induction of apoptosis in human HepG2 cells assessed as late apoptotic cells by measuring orange to red patch incubated at 0.11 uM for 72 hrs by acridine orange-ethidium bromide dual staining based fluorescence microscopic analysis; assay type: functional, cell-based
# Calf thymus DNA = test: Induction of calf thymus DNA damage assessed as disrupted by DNA by measuring decrease in fluorescence intensity by EvaGreen based fluorescence plate reader analysis; assay type: nucleic-acid assay; conditions: Bos taurus; dose <= 500.0 µM
# HepG2 [17] = test: Induction of apoptosis in human HepG2 cells assessed as early apoptotic cells by measuring bright green patch incubated at 0.11 uM for 72 hrs by acridine orange-ethidium bromide dual staining based fluorescence microscopic analysis; assay type: functional, cell-based
# HeLa [18] = test: Anticancer activity against human HeLa cells assessed as round cells incubated at 0.11 uM for 72 hrs by phase contrast inverted microscopic analysis; assay type: functional, cell-based
# HepG2 [19] = test: Anticancer activity against human HepG2 cells assessed as absence of normal spindle shape incubated at 0.11 uM for 72 hrs by phase contrast inverted microscopic analysis; assay type: functional, cell-based
# dsDNA [20] = test: Induction of damage in dsDNA (unknown origin) assessed as DNA disruption by measuring fluorescence intensity at 100 uM incubated for 2.5 hrs by EvaGreen based fluorescence plate reader analysis; assay type: nucleic-acid assay
# Caco-2 [21] = test: Anticancer activity against human Caco-2 cells assessed as smaller cells incubated at 0.11 uM for 72 hrs by phase contrast inverted microscopic analysis; assay type: functional, cell-based
# HepG2 [22] = test: Induction of apoptosis in human HepG2 cells assessed as caspase3/7 activation at 0.11 uM using caspase-glo 3/7 as substrate relative to control; assay type: functional
# MCF7 [23] = test: Anticancer activity against human MCF7 cells incubated for 24 hrs by MTT assay; assay type: functional, cell-based; conditions: MCF7, 24 h
# dsDNA [24] = test: Induction of damage in dsDNA (unknown origin) assessed as DNA disruption by measuring damage constant at 100 uM incubated for 2.5 hrs by EvaGreen based fluorescence plate reader analysis; assay type: nucleic-acid assay
# Caco-2 [25] = test: Induction of apoptosis in human Caco-2 cells assessed as necrotic cells incubated at 0.11 uM for 72 hrs by annexin V-FITC based propidium iodide dual staining assay (reference value: 0.02%); assay type: functional
# MCF7 [26] = test: Induction of oxidative stress in human MCF7 cells assessed as cell death by measuring redox alteration fluorescence incubated at 0.097 uM for 72 hrs in presence of dihydro dichlorofluorescein diacetate by DCFH-DA based flow cytometric analysis relative to control; assay type: functional
# HeLa [27] = test: Induction of oxidative stress in human HeLa cells assessed as cell death by measuring redox alteration fluorescence incubated at 0.027 uM for 72 hrs in presence of dihydro dichlorofluorescein diacetate by DCFH-DA based flow cytometric analysis relative to control; assay type: functional
# HepG2 [28] = test: Induction of apoptosis in human HepG2 cells assessed as viable cells by measuring green uniform patch incubated at 0.017 uM for 72 hrs by acridine orange-ethidium bromide dual staining based fluorescence microscopic analysis; assay type: functional, cell-based
# MCF7 [29] = test: Induction of apoptosis in human MCF7 cells assessed as caspase3/7 activation at 0.017 uM using caspase-glo 3/7 as substrate relative to control; assay type: functional
# HepG2 [30] = test: Induction of apoptosis in human HepG2 cells assessed as caspase3/7 activation at 0.017 uM using caspase-glo 3/7 as substrate relative to control; assay type: functional
# HeLa [31] = test: Induction of apoptosis in human HeLa cells assessed as viable cells incubated at 0.017 uM for 72 hrs by annexin V-FITC based propidium iodide dual staining assay (reference value: 97.23%); assay type: functional; conditions: read-out: Activity
# HepG2 [32] = test: Induction of apoptosis in human HepG2 cells assessed as late apoptotic cells incubated at 0.017 uM for 72 hrs by annexin V-FITC based propidium iodide dual staining assay (reference value: 0.66%); assay type: functional
# MCF7 [33] = test: Induction of apoptosis in human MCF7 cells assessed as viable cells by measuring green uniform patch incubated at 0.017 uM for 72 hrs by acridine orange-ethidium bromide dual staining based fluorescence microscopic analysis; assay type: functional, cell-based
# MCF7 [34] = test: Induction of apoptosis in human MCF7 cells assessed as late apoptotic cells incubated at 0.017 uM for 72 hrs by annexin V-FITC based propidium iodide dual staining assay (reference value: 0.01%); assay type: functional
compound,measurement,setting,value
O=C(CN1C(=O)CN(/N=C/c2ccc([N+](=O)[O-])o2)C1=O)c1ccc(Cl)cc1,Activity,HeLa [1],Active
same,Activity,Caco-2 [2],Active
same,Activity,HepG2 [3],38.74%
same,Activity,HepG2 [4],Active
same,Activity,HepG2 [5],Active
same,Activity,Caco-2 [6],Active
same,Activity,HepG2 [7],3.85%
NS(=O)(=O)c1ccc(-n2cc(CN3C(=O)CN(/N=C/c4ccc([N+](=O)[O-])o4)C3=O)nn2)cc1,Activity,Caco-2 [8],Active
same,Activity,MCF7 [9],4.85%
same,Activity,MCF7 [10],300%
same,Activity,MCF7 [11],60.48%
same,Activity,HepG2 [12],21.02%
same,Activity,HepG2 [13],Active
same,Activity,HeLa [14],Active
C#CCN1C(=O)CN(/N=C/c2ccc([N+](=O)[O-])o2)C1=O,Activity,MCF7 [15],38.72%
same,IC50,MDA-MB-231,242 µM
same,Activity,HepG2 [16],Active
same,Activity,Calf thymus DNA,Dose-Dependent Effect
same,Activity,HepG2 [17],Active
same,Activity,HeLa [18],Active
same,Activity,HepG2 [19],Active
same,Activity,dsDNA [20],27.2
same,Activity,Caco-2 [21],Active
same,Activity,HepG2 [22],63%
same,IC50,MCF7 [23],120 µM
same,Activity,dsDNA [24],8.41
same,Activity,Caco-2 [25],0.57%
same,Activity,MCF7 [26],35.5%
O=c1[nH]cc(F)c(=O)[nH]1 [FLUOROURACIL],Activity,HeLa [27],4.91%
same,Activity,HepG2 [28],Active
same,Activity,MCF7 [29],12%
same,Activity,HepG2 [30],12%
same,viability at 0.017 µM,HeLa [31],88.1%
same,Activity,HepG2 [32],2.34%
same,Activity,MCF7 [33],Active
same,Activity,MCF7 [34],2.26%

# — ChEMBL document CHEMBL5380816, “Inclusion of Nitrofurantoin into the Realm of Cancer Chemotherapy via Biology-Oriented Synthesis and Drug Repurposing” (J Med Chem, 2023)
